# Source: PubChem BioAssay (NCI)
# “And” between values parts separate entries of the source, which are not always exact repeats. Equal values may be shown once.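 Tested at 5 concentrations; 48 h exposure; 96-well plates; endpoints linearly interpolated, else capped at highest concentration. GI50: concentration for 50% inhibition of growth. TGI marks complete inhibition of growth.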
# Tests used:
# Assay in all cases: NCI tumour cell line growth inhibition, 48 h
# MDA-N = test system: MDA-N
# XF 498 CNS = test system: XF 498 CNS
# DMS 114 small cell lung = test system: DMS 114 small cell lung
# DMS 273 small cell lung = test system: DMS 273 small cell lung
# DLD-1 colon = test system: DLD-1 colon
# SNB-78 CNS = test system: SNB-78 CNS
# RXF-631 renal = test system: RXF-631 renal
# M19-MEL melanoma = test system: M19-MEL melanoma
# HOP-18 NSCLC = test system: HOP-18 NSCLC
# P388/ADR leukemia = test system: P388/ADR leukemia
# SN12K1 renal = test system: SN12K1 renal
# P388 leukemia = test system: P388 leukemia
SMILES,TGI (MDA-N),TGI (XF 498 CNS),TGI (DMS 114 small cell lung),TGI (DMS 273 small cell lung),TGI (DLD-1 colon),TGI (SNB-78 CNS),TGI (M19-MEL melanoma),TGI (HOP-18 NSCLC),other results
O=C(/C=C/C(Cl)(Cl)Cl)Nc1ccc(Cl)cc1,13.8 µM,,,,,,,,
COc1cccc(/C=C/c2ccnc3ccccc23)c1OC,> 10 µM,,,,,,,,
COC(=O)C1C(=O)O[C@@H](c2ccc(OC)c(OC)c2OC)C1C(=O)OC (mixture of isomers),,> 100 µM,> 100 µM,> 100 µM,> 100 µM,> 100 µM,> 100 µM,,TGI (RXF-631 renal): > 100 µM
O=C1C=CC(=Nc2cccc3c(N=C4C=CC(=O)O4)cccc23)O1,69.1 µM,,,,,,,,
CCCCCCCCCCSC(=O)NC,,54 µM,,> 100 µM,> 100 µM,,> 100 µM,> 100 µM,
COc1ccc(-c2ccccc2)c2[nH]c3c(c12)CCNC3=O,,,,> 100 µM,> 100 µM,> 100 µM,> 100 µM,,
CC(=O)[CH-]C(=O)c1ccccc1.CC(=O)[CH-]C(=O)c1ccccc1.CC(C)CCC[C@H](C)C1CCC2[C@@H]3CC=C4C[C@@H]([O-])CC[C@]4(C)C3CC[C@@]21C.CC(C)CCC[C@H](C)C1CCC2[C@@H]3CC=C4C[C@@H]([O-])CC[C@]4(C)C3CC[C@@]21C.Cl.[Ti+4] (stereo partly drawn),,,,> 25 µM,> 25 µM,,,> 25 µM,GI50 (HOP-18 NSCLC): > 25 µM; GI50 (DMS 273 small cell lung): > 25 µM; GI50 (DLD-1 colon): > 25 µM
CN(NC1OC(CO)C(O)C(O)C1O)c1ccccc1 (stereo not drawn),,30.6 µM,,> 100 µM,> 100 µM,> 100 µM,> 100 µM,> 100 µM,
CC(=O)OC(C)(C)/C=C/C(=O)[C@](C)(O)[C@H]1[C@H](O)C[C@@]2(C)[C@@H]3CC=C4[C@@H](C=C(O)C(=O)C4(C)C)[C@]3(C)C(=O)C[C@]12C,1.57 µM,,,0.203 µM and 0.0544 µM and 0.1 µM,4.25 µM and 4.43 µM and 2.19 µM,,4.2 µM and 3.01 µM and 3.43 µM,,GI50 (P388/ADR leukemia): 0.175 µM; TGI (P388/ADR leukemia): 3.04 µM and 2 µM; GI50 (SN12K1 renal): 0.0155 µM; TGI (SN12K1 renal): 0.287 µM and 0.0604 µM; GI50 (P388 leukemia): 0.0895 µM; TGI (P388 leukemia): 2.32 µM and 14.3 µM; GI50 (RXF-631 renal): 0.018 µM; TGI (RXF-631 renal): 0.434 µM and 0.152 µM
O=C(CO[N+](=O)[O-])OC/C=C/c1ccccc1,,,> 100 µM,> 100 µM,> 100 µM,,> 100 µM,,
COc1ccc2nc3cc([N+](=O)[O-])ccc3c(NNc3ccccc3)c2c1,> 100 µM,,,,,,,,
CN(C)CCn1cnc2ncccc2c1=O,,> 100 µM,> 100 µM,> 100 µM,> 100 µM,> 100 µM,> 100 µM,,
CC1CCC(=O)C(C(O)CC2CC(=O)N(c3ccccc3)C(=O)C2)C1 (stereo not drawn),,,> 100 µM,> 100 µM,> 100 µM,> 100 µM,> 100 µM,> 100 µM,
O=C(CCl)Nc1cc(Cl)c(Cl)cc1Cl,3.19 µM,,,,,,,,
COC1OC(CBr)C(OC(=O)c2ccccc2)C(OS(=O)(=O)c2ccc(C)cc2)C1Br (stereo not drawn),,,,> 100 µM,,> 100 µM,> 100 µM,,
COc1cccc2nc3ccccc3nc12,> 100 µM,,,,,,,,
CC(=O)Nc1ccc(/C=C2\N=C(c3ccccc3)OC2=O)cc1,,,> 100 µM,,> 100 µM,,,> 100 µM,

SMILES,TGI (MDA-N),TGI (XF 498 CNS),TGI (DMS 114 small cell lung),TGI (DMS 273 small cell lung),TGI (DLD-1 colon),TGI (SNB-78 CNS),TGI (M19-MEL melanoma),TGI (HOP-18 NSCLC),other results
CN(C)C(=O)NC(=S)N(C)C,,> 100 µM,> 100 µM,> 100 µM,> 100 µM,> 100 µM,> 100 µM,> 100 µM,
C[C@H](CS)C(=O)N1c2ccccc2C[C@H]1C(=O)O,> 100 µM,,,,,,,,
O=C1C2c3[nH]c4ccccc4c3C3CCCCCC3C2C(=O)N1c1ccccc1 (stereo not drawn),,47.4 µM,> 100 µM,> 100 µM,> 100 µM,70.7 µM,> 100 µM,> 60.4 µM,
O=Cc1c(-c2ccccc2)[nH]c2ccccc2c1=O,34.2 µM,,,,,,,,
C(=Nc1cnc2ccccc2c1)c1ccc2ccccc2n1,> 100 µM,,,,,,,,
CCOc1ccc(OCC)c([P+](c2ccccc2)(c2ccccc2)c2ccccc2)c1,,0.542 µM,3.18 µM,1.21 µM,16 µM,> 100 µM,16.3 µM,6.22 µM,TGI (RXF-631 renal): 51.4 µM
O=C(O)c1c(Cl)c(Cl)c(Cl)c(Cl)c1C(=O)Nc1ccc2cn[nH]c2c1,> 100 µM,,,,,,,,
CC(=O)OCC1OC(OCc2ccccc2)C(Br)C(OC(C)=O)C1OC(C)=O (stereo not drawn),,> 100 µM,,> 100 µM,> 100 µM,> 100 µM,> 100 µM,> 100 µM,TGI (RXF-631 renal): > 100 µM
O=c1ccc(=O)n(-c2ccccc2)[nH]1,> 100 µM,,,,,,,,
CC1=C(C(=O)NCc2ccccc2)C(c2ccccc2C)C(C(=O)NCc2ccccc2)=C(C)N1,,,> 67.7 µM,> 69.9 µM,51.3 µM,> 100 µM,> 75.8 µM,> 91.2 µM,TGI (RXF-631 renal): > 100 µM
O=C(COc1ccc(OCC(=O)N2C(=O)CN(c3ccccc3)C2=S)cc1)N1C(=O)CN(c2ccccc2)C1=S,> 100 µM,,,,,,,,GI50 (MDA-N): > 25 µM
CN(C)Cc1ccc(C(C)(C)C)cc1-c1cc(C(C)(C)C)ccc1CN(C)C,> 100 µM,,,,,,,,
Cc1cc(=O)n(-c2c(C)cccc2Cl)c(/C=C(\O)c2ccncc2)n1,,,> 100 µM,> 100 µM,> 100 µM,> 100 µM,,> 100 µM,TGI (RXF-631 renal): > 100 µM
COc1ccc(S(=O)(=O)N[C@H](C(=O)O)c2ccccc2)cc1,,> 100 µM,> 100 µM,> 100 µM,> 100 µM,> 100 µM,> 100 µM,> 100 µM,
O=C(N/C(=C\c1ccccc1Cl)c1nc2ccccc2[nH]1)c1ccccc1,,57.5 µM,> 100 µM,,> 100 µM,> 100 µM,> 100 µM,,TGI (RXF-631 renal): > 100 µM
CCOC(=O)C(NO)C(Sc1ccccc1)c1ccc(OC)cc1 (stereo not drawn),,> 100 µM,> 100 µM,> 100 µM,> 100 µM,> 100 µM,> 100 µM,> 100 µM,
